Results taken from paper PMC12650660, “Novel Synthetic Strategies Towards Analogues of Cadaside and Malacidin Antibiotic Peptides” (Biomolecules, 2025).

Tests used:
[1] = head-to-tail type lactamisation of side-chain-protected branched depsipeptide (Gly10 N-terminus of ester branch + C-terminal Pro9), HATU/DIPEA (pH ~10), microwave; conditions: the molecule shown is the open-chain precursor, DCM, 6.0 mM, 70.0 °C, 1.0 h
[2] = tail-to-side-chain lactamisation of side-chain-protected peptide (Dap2 beta-NH2 + C-terminal Pro), HATU/DIPEA, microwave; conditions: the molecule shown is the open-chain precursor; 28-membered ring; DCM; 6.0 mM; 70.0 °C; 1.0 h
[3] = set-up: key: “+” indicates binding confirmed; “-” indicates no binding; “~” indicates potential binding with absence of precursor band; conditions: Table S2; ref SI [7], [9], [10]; cited from earlier work
Text: page 11: Table S2: Summary of the ability of CDAs to bind cell wall synthesis precursors, as well as tendency to induce membrane depolarisation. “+” indicates binding, “-” indicates no binding, “n.d.” indicates binding has not been determined. * indicates binding occurs in the presence of phosphatidylglycerol. Peptide C -P C-PP Lipid I Lipid II Membrane 55 55 Depolarisation Daptomycin [1]–[4] + * + * n.d. + * + A54145 [5] n.d. n.d. n.d. n.d. + Tsushimycin [4] + n.d. n.d. n.d. n.d. Laspartomycin [6] + n.d. n.d. n.d. - Friulimicin [7] + - - - - Taromycin n.d. n.d. n.d. n.d. n.d. Amphomycin [9], ...

CCCCCCCCCC(=O)NC[C@@H](C)C(=O)NCC(=O)N[C@H](CCC(=O)OC(C)(C)C)C(=O)N[C@@H](Cc1ccc(OC(C)(C)C)cc1)C(=O)N[C@H](C(=O)N[C@@H](C(=O)N[C@@H](CC(=O)OC(C)(C)C)C(=O)N[C@@H](CC(=O)OC(C)(C)C)C(=O)N1CCC[C@H]1C(=O)O)[C@H](C)CC)[C@@H](C)OC(=O)CN(C)C(=O)[C@H](CC(=O)OC(C)(C)C)NC(=O)CNC(=O)[C@H](CC(=O)OC(C)(C)C)NC(=O)CN
ring closure, overall yield ([1]; 31-membered ring): 0.3%

CCCCCCCCCC(=O)NC[C@@H](C)C(=O)NCC(=O)N[C@H](CCC(=O)OC(C)(C)C)C(=O)N[C@@H](Cc1ccc(OC(C)(C)C)cc1)C(=O)N[C@H](C(=O)N[C@@H](C(=O)N[C@@H](CC(=O)OC(C)(C)C)C(=O)N[C@@H](CC(=O)OC(C)(C)C)C(=O)N1CCC[C@H]1C(=O)O)[C@H](C)CC)[C@@H](C)OC(=O)CN(C)C(=O)[C@H](CC(=O)OC(C)(C)C)NC(=O)[C@@H](CC(=O)OC(C)(C)C)NC(=O)CN
ring closure, overall yield ([1]; 28-membered ring): 0.3%

CCCCCCCCCC(=O)NC[C@@H](C)C(=O)NCC(=O)N[C@H](CCC(=O)OC(C)(C)C)C(=O)N[C@@H](Cc1ccc(OC(C)(C)C)cc1)C(=O)N[C@H](C(=O)N[C@@H](C(=O)N[C@@H](CC(=O)OC(C)(C)C)C(=O)N[C@@H](CC(=O)OC(C)(C)C)C(=O)N1CCC[C@H]1C(=O)O)[C@H](C)CC)[C@@H](C)OC(=O)CN(C)C(=O)[C@H](CC(=O)OC(C)(C)C)NC(=O)[C@@H](CCC(=O)OC(C)(C)C)NC(=O)CN
ring closure, overall yield ([1]; 28-membered ring): 0.4%

CCCCCCCCCC(=O)NC[C@@H](C)C(=O)NCC(=O)N[C@H](CCC(=O)OC(C)(C)C)C(=O)N[C@@H](Cc1ccc(OC(C)(C)C)cc1)C(=O)N[C@H](C(=O)N[C@@H](C(=O)N[C@@H](CC(=O)OC(C)(C)C)C(=O)N[C@@H](CC(=O)OC(C)(C)C)C(=O)N1CCC[C@H]1C(=O)O)[C@H](C)CC)[C@@H](C)OC(=O)CN(C)C(=O)[C@H](CC(=O)OC(C)(C)C)NC(=O)[C@H](CC(=O)OC(C)(C)C)NC(=O)CN
ring closure, overall yield ([1]; 28-membered ring): 0.4%

CCCCCCCCCC(=O)NC[C@@H](C)C(=O)NCC(=O)N[C@H](CCC(=O)OC(C)(C)C)C(=O)N[C@@H](Cc1ccc(OC(C)(C)C)cc1)C(=O)N[C@H](C(=O)N[C@@H](C(=O)N[C@@H](CC(=O)OC(C)(C)C)C(=O)N[C@@H](CC(=O)OC(C)(C)C)C(=O)N1CCC[C@H]1C(=O)O)[C@H](C)CC)[C@@H](C)OC(=O)CN(C)C(=O)[C@H](CC(=O)OC(C)(C)C)NC(=O)[C@H](CCC(=O)OC(C)(C)C)NC(=O)CN
ring closure, overall yield ([1]; 28-membered ring): 0.2%

CCCCCCCCCC(=O)NC[C@@H](C)C(=O)NCC(=O)N[C@H](CCC(=O)OC(C)(C)C)C(=O)N[C@@H](Cc1ccc(OC(C)(C)C)cc1)C(=O)N[C@H](C(=O)N[C@@H](C(=O)N[C@@H](CC(=O)OC(C)(C)C)C(=O)N[C@@H](CC(=O)OC(C)(C)C)C(=O)N1CCC[C@H]1C(=O)O)[C@H](C)CC)[C@@H](C)OC(=O)CN(C)C(=O)[C@H](CCC(=O)OC(C)(C)C)NC(=O)CNC(=O)[C@@H](CCC(=O)OC(C)(C)C)NC(=O)CN
ring closure, overall yield ([1]; 31-membered ring): 0.3%

CCCCCCCCCC(=O)NC[C@@H](C)C(=O)NCC(=O)N[C@H](CCC(=O)OC(C)(C)C)C(=O)N[C@@H](Cc1ccc(OC(C)(C)C)cc1)C(=O)N[C@H](C(=O)N[C@@H](C(=O)N[C@@H](CC(=O)OC(C)(C)C)C(=O)N[C@@H](CC(=O)OC(C)(C)C)C(=O)N1CCC[C@H]1C(=O)O)[C@H](C)CC)[C@@H](C)OC(=O)CN(C)C(=O)[C@H](CCC(=O)OC(C)(C)C)NC(=O)[C@@H](CC(=O)OC(C)(C)C)NC(=O)CN
ring closure, overall yield ([1]; 28-membered ring): 0.3%

CCCCCCCCCC(=O)NC[C@@H](C)C(=O)NCC(=O)N[C@H](CCC(=O)OC(C)(C)C)C(=O)N[C@@H](Cc1ccc(OC(C)(C)C)cc1)C(=O)N[C@H](C(=O)N[C@@H](C(=O)N[C@@H](CC(=O)OC(C)(C)C)C(=O)N[C@@H](CC(=O)OC(C)(C)C)C(=O)N1CCC[C@H]1C(=O)O)[C@H](C)CC)[C@@H](C)OC(=O)CN(C)C(=O)[C@H](CCC(=O)OC(C)(C)C)NC(=O)[C@@H](CCC(=O)OC(C)(C)C)NC(=O)CN
ring closure, overall yield ([1]; 28-membered ring): 0.5%

CCCCCCCCCC(=O)NC[C@@H](C)C(=O)NCC(=O)N[C@H](CCC(=O)OC(C)(C)C)C(=O)N[C@@H](Cc1ccc(OC(C)(C)C)cc1)C(=O)N[C@H](C(=O)N[C@@H](C(=O)N[C@@H](CC(=O)OC(C)(C)C)C(=O)N[C@@H](CC(=O)OC(C)(C)C)C(=O)N1CCC[C@H]1C(=O)O)[C@H](C)CC)[C@@H](C)OC(=O)CN(C)C(=O)[C@H](CCC(=O)OC(C)(C)C)NC(=O)[C@H](CC(=O)OC(C)(C)C)NC(=O)CN
ring closure, overall yield ([1]; 28-membered ring): 0.2%

CCCCCCCCCC(=O)NC[C@@H](C)C(=O)NCC(=O)N[C@H](CCC(=O)OC(C)(C)C)C(=O)N[C@@H](Cc1ccc(OC(C)(C)C)cc1)C(=O)N[C@H](C(=O)N[C@@H](C(=O)N[C@@H](CC(=O)OC(C)(C)C)C(=O)N[C@@H](CC(=O)OC(C)(C)C)C(=O)N1CCC[C@H]1C(=O)O)[C@H](C)CC)[C@@H](C)OC(=O)CN(C)C(=O)[C@H](CCC(=O)OC(C)(C)C)NC(=O)[C@H](CCC(=O)OC(C)(C)C)NC(=O)CN
ring closure, overall yield ([1]; 28-membered ring): 1%

CCCCCCCCCC(=O)N[C@@H](CC(=O)OC(C)(C)C)C(=O)N[C@@H](CN)C(=O)N[C@@H](C(=O)N[C@@H](CCCCNC(=O)OC(C)(C)C)C(=O)N[C@@H](CC(=O)OC(C)(C)C)C(=O)N[C@@H](CC(=O)OC(C)(C)C)C(=O)N(CC(=O)N[C@H](CC(=O)OC(C)(C)C)C(=O)N[C@H](C(=O)N1CCC[C@H]1C(=O)O)C(C)C)Cc1ccc(OC)cc1OC)C(C)C
ring closure, overall yield [2]: 1.3%

Amphomycin
Lipid I binding (reported) [3]: -

Friulimicin
Lipid I binding (reported) [3]: -
